# Patent EP3733658B1, “PRENYLATED BENZOPYRANES AS PPAR AGONISTS” (Universitat de València, priority 2017, dated 2019)
# Tests used:
# [1] = test system: mononuclear cell adhesion induced by TNFα; assay: Mononuclear cell adhesion to TNFα-stimulated HUVEC transfected with control or RXRα, PPARα, PPARγ specific siRNA; format: cell-based, human; details: 20 h
# [2] = test system: white adipose tissue (WAT); assay: Treatment of ob/ob mice: white adipose tissue weight, histology and F4/80 immunohistochemistry; format: in vivo; details: oral, 4 days
# Source text: (§1) […]. […] […].
# The samples of epididymal white adipose tissue (WAT) and liver were fixed in 4% paraformaldehyde, embedded in paraffin, sectioned with a microtome (Leica RM2245, Leica Biosystems, Wetzlar, Germany) and mounted in microscope slides Superfrost® plus (Thermo Fisher Scientific, Waltham, MA). Cross sections of WAT and liver were obtained. At least 10 slides were examined containing ≈ 4 cross sections of tissue (5 µm thickness) of each animal. Hematoxilin and eosin (H&E) staining was performed of the WAT and liver. Inflammatory infiltration in WAT was measured as previously described (Toyoda et al., 2008). After inactivation of the peroxidase (3% H2O2) and blocking with goat serum (Abcam, Cambridge, UK), cross sections of WAT were incubated overnight (4°C) with the following primary (mAb) monoclonal antibody: a rabbit anti-mouse F4/80 mAb (dilution 1:100, Abcam, Cambridge, UK). A specific marking was detected with a secondary goat HRP-conjugated anti-rabbit antibody (dilution 1:500, Dako, Copenhagen, Denmark). To confirm the specificity of the antibodies, control antibodies with the same isotope (Abcam, Cambridge, UK) or secondary antibody were used only as negative controls. […] Five fields of each WAT tissue section were photographed (Axio Observer A1, Carl Zeiss microscope, Thornwood, NY) digitalized and analyzed (Imaged software 1.48V, Bethesda, […]). Quantification was performed double blind with codes.
# [3] = test system: ob/ob mice; assay: Treatment of ob/ob mice: blood glucose; format: in vivo
# Method: This study used male ob/ob mice (C57BU6J) (Charles River laboratories, Chatillon-sur-Chalaronne, France).
# The mice were housed in individual cages in a room with controlled temperature, humidity and light. […] The mice were allowed to acclimate for ten days prior to the study.
# The control ob/ob mice were just administered with vehicle (physiological saline solution with HEC 1%). […] The compounds were prepared freshly each day in a 1% suspension of HEC for oral administration. Randomization was performed based on the glycaemia values on day 0. For the duration of the experiment the amount of food ingested and the body weight were determined daily for each mouse. Every day between 9:00 and 11:00 a.m. (prior to treatment) blood glucose levels were measured using (Contour next USB Blood glucose meter, BAYER, Basel, Switzerland).
# [4] = test system: human umbilical vein endothelial cells (HUVEC); assay: MTT colorimetric cell viability assay, HUVEC; format: cell-based; details: 30 µM, 24 h
# Method: To evaluate potential adverse effects (cytotoxicity) of the compounds of the invention, the compounds 1 and 2 for use according to the present invention, compound 8 of the invention, and the reference compounds were evaluated at concentrations of 30 and 100 µM in human neutrophils (Fig. 1A) and primary cultures of human umbilical vein endothelial cells (HUVEC) (Fig. 1B) using two different techniques: MTT colorimetry assay and flow cytometry analysis for cellular apoptosis and survival. In addition, the synthetic compound 9 of the invention was evaluated at 10, 30 and 100 µM (Fig. 2).
# MTT assay. The viability of neutrophils and HUVEC was determined by the MTT colorimetric assay MTT (3(4,5-dimethylthiazol-2-yl)-2,5-diphenyltetrazoyl bromide).
# Human umbilical vein endothelial cells (HUVEC) were isolated with the collagenase treatment and maintained in a human specific endothelial base medium (EBM-2) supplemented with endothelial growth medium (EGM-2) and 10% FCS. Cells of the first passage were cultured until their confluence in 24-well plates. Before starting each experiment, the cells were incubated for 24 h in a medium containing 1% FBS.
# 100 µL of neutrophils and HUVEC (2 × 10^5 cells/mL) suspension in supplemented RPMI medium were added to each well of a 96-well plate. The cells were incubated in absence and/or presence of the compounds at 37°C for24h. An MTT solution was prepared (2 mg/mL in PBS). 100 µL of the MTT solution were added to each well and incubated at 37°C for an additional 3 h. The supernatants were discarded and 200 µL of DMSO were added to each well to dissolve the precipitated formazan. The optical densities at two wavelengths (560 and 630 nm) were measured in a spectrophotometer (Infinite M200, Tecan, Mannedorf, Switzerland).
# [5] = Treatment of ob/ob mice: plasma metabolites (cholesterol, HDL-c, triglycerides, free fatty acids, ALT, AST); format: in vivo; design: blood levels of free fatty acids: unit not given here; details: oral, 4 days; for triglyceride levels in plasma: control 137 mg/dL
# Method: as §1
# Free fatty acids (FFA) in plasma, and the enzymes aspartate aminotransferase (AST) and alanine aminotransferase (ALT) were determined with a colorimetric assay kit (Sigma-Aldrich, Madrid, Spain). In addition the plasma lipid levels for total cholesterol and triglycerides (TG) were measured by enzymatic methods (WAKO, Cape Charles, VA). The concentration of HDLcholesterol (HDL-c) was also determined with the same method used to measure total cholesterol, after precipitating the apolipoprotein-B (apoB) with dextran sulphate/MgCl2 (Sigma-Aldrich, Madrid, Spain) as previously described (Zieske et al., 2005).
# [6] = test system: CXCL16; assay: Flow cytometry of TNFα-induced CXCL16 expression in HUVEC; format: cell-based, human; details: 3 µM, TNFα 20 ng/mL 24 h
# Method: The cells were collected from the flasks using accutase (StemPro® Accutase® Cell Dissociation Reagent, ThermoFischer Scientific, Waltham, MA).
# Then they were washed and incubated for 1 h with a APC-conjugated mAb antibody against human VCAM-1 (100 µg/mL; clone STA, BioLegend, San Diego, CA), a FITC- conjugated mAb against human ICAM-1 (400 µg/mL; clone HA58, BioLegend, San Diego, CA), a PE-conjugated mAb against human CX3CL1 (1.25 µg/mL; clone 51637, R&D Systems, Minneapolis, MN) or with a APC-conjugated mAb antibody against human CXCL16 (clone 256213, R&D Systems, Abingdon, UK), all at a dilution of 1:25 in 3% BSA/PBS. The samples were analyzed using a BD FACSVerse Flow Cytometer (BD Biosciences, San Jose, CA).
# [7] = test system: liver; assay: Treatment of ob/ob mice: liver weight and liver triglycerides; format: in vivo; details: oral, 4 days
# Source text: (§2) 6 animals were used in each group in independent experiments (n=6).
# [8] = test system: MCP-1; assay: Treatment of ob/ob mice: MCP-1 mRNA in WAT by real-time PCR; format: in vivo; details: oral, 30 mg/Kg/d, 4 days
# Method: as §2
# The total RNA was extracted from mouse WAT by homogenization. Reverse transcription was performed with 1000 ng of total RNA using the inverse transcription kit TaqMan (Applied Biosystems, Thermo Fisher Scientific, Waltham, MA) and converted to cDNA by standard methods. The cDNA was amplified with specific feeders for the mouse monocytic chemoattractant protein 1 (MCP-1 or CCL2, Mm00441242_m1) in a Real Time PCR 7900HT apparatus (Applied Biosystems, Thermo Fisher Scientific, Waltham, MA) using Universal Master Mix (Applied Biosystems, Thermo Fisher Scientific, Waltham, MA). All feeders were designed by Applied Biosystems. The relative quantification of the various transcriptions was determined by the 2^-ΔΔCt method using GAPDH (Applied Biosystems, Thermo Fisher Scientific, Waltham, MA) as endogenous and normalized control for the control group.
compound,measurement,setting,value
"C/C(=C\CCC1(C)CCc2cc(O)cc(C)c2O1)CC/C=C(\C)C(=O)O (centres unmarked) [Polycerasoidol, 1, polycerasoidol]",inhibitory response on mononuclear cell adhesion after PPARα silencing,"[1]; PPARα siRNA HUVEC, polycerasoidol 10 µM, rosiglitazone 1 µM",not affected
same,inhibitory response on mononuclear cell adhesion in HUVEC deficient in PPARγ,"[1]; PPARγ siRNA HUVEC, 10 µM",annulled
same,inhibitory effect on mononuclear cell adhesion after RXRα silencing,"[1]; RXRα specific siRNA HUVEC, 10 µM",completely suppressed
same,TNFα-induced adhesion of mononuclear cells,"[1]; control siRNA transfected HUVEC, polycerasoidol 10 µM, rosiglitazone 1 µM",inhibited
CCOC(=O)CCC(C)=CCCC1(C)CCc2cc(OCc3ccc(F)cc3)ccc2O1 (centres unmarked) [Compound 9],number of macrophages (F4/80) in WAT,[2]; 30 mg/Kg/d,significantly reduce
same,weight of epididymal white adipose tissue (WAT) compared to the control group,[2],did not significantly increase
same,mean area of the adipocytes in WAT,"[2]; compound 9 10 and 30 mg/Kg/d (dose-dependent), rosiglitazone 10 mg/Kg/d",significant decrease
same,"glucose blood level, day 0 (before treatment)",[3]; group given 30 mg/Kg/d,261 mg/dL
same,glucose blood level after 4 days,"[3]; oral, 30 mg/Kg/d",194 mg/dL
same,decrease in glucose blood levels compared to day 0,"[3]; oral, 30 mg/Kg/d, after 4 days",20%
same,"cytotoxicity (MTT), with respect to the vehicle",[4],12%
same,triglyceride levels in plasma,[5]; 10 mg/Kg/d,122 mg/dL
same,triglyceride levels in plasma,[5]; 30 mg/Kg/d,101 mg/dL
same,blood levels of free fatty acids,"[5]; 30 mg/Kg/d, control 0.67",0.25
same,triglyceride levels in plasma (in words),[5],"decrease of triglyceride levels in plasma, although not in a significant manner"
same,decrease of AST level compared to the ob/ob control group,"[5]; plasma, 30 mg/Kg/d",28%
same,increase of total cholesterol levels with respect to the control group,"[5]; plasma, 30 mg/Kg/d",50%
same,ALT level,[5]; plasma,reduced
same,HDL-c with respect to the control group,"[5]; plasma, compound 9 10 and 30 mg/Kg/d, WY-14643 30 mg/Kg/d",significantly increased
same,expression of CXCL16 induced by TNFα,[6],significant decrease
same,triglyceride content in the liver compared to the ob/ob control group,[7]; 30 mg/Kg/d,did not accumulate significantly
same,liver weight with respect to the ob/ob control group,[7],non-significant weight increase
same,expression of MCP-1 in WAT,[8],significantly reduced
